These results are taken from patent US11091421B2, “Benzene fused heterocyclic derivative and pharmaceutical composition comprising the same” (TAIWANJ PHARMACEUTICALS CO., LTD., priority 2017, dated 2021).

Molecules are shown by their SMILES. A value given as a limit tells only on which side of the number the result lay.

The target in the first test is autotaxin (Homo sapiens, UniProt Q13822). Kind of test: Autotaxin inhibitor screening assay (phosphodiesterase activity, p-nitrophenol cleaved from bis-(p-nitrophenyl) phosphate, absorbance 410 nm). Conditions: compound at 30 μM; BNPP 3 mM, pH 9.0, 37° C., 30 minutes. The format is biochemical. As to the method:
As described above, the compounds in the present disclosure have the effect of inhibiting the activity of autotaxin, and can be used as autotaxin inhibitors. One method for inhibiting activity of autotaxin in environment is administering to the environment an effective amount of the compound of Formula (I). Please refer to the following experiment, the phosphodiesterase activity of autotaxin was measured using the p-nitrophenol that is a yellow product cleaved by autotaxin from the bis-(p-nitrophenyl) phosphate. Compound samples (10 μl) were incubated with autotaxin (10 μl) in a final volume of 200 μl assay buffer (5 mM CaCl2, 50 mM Tris-HCl, pH 9.0) containing bis-(p-nitrophenyl) phosphate (BNPP) at a final concentration of 3 mM at 37° C. After 30 minutes, absorbance at 410 nm of the reacted solution was measured. The percent inhibition for each test article (TA) (compound) was determined using the following equation. % Inhibition=(O.D.vehicle−O.D.TA)/O.D.vehicle×100
With `O=C1c2cc(O)ccc2CC1CC1CCN(C(=O)OCc2cc(Cl)cc(Cl)c2)CC1` (stereo not drawn) [Compound 119], the Inhibition result is given as “B (50%~80% inhibition at 30 μM)”.

Staying with this test, now noted: pH 9.
Take `O=C(Nc1ccc2c(c1)CC(Cc1ccc(C(=O)O)cc1)C2)OCc1ccccc1` (stereo not drawn) [Compound 110]: the inhibition (in general, the share of the control response that was lost under treatment) at 30 µM was 50 to 80%.

Still in this test, the particulars now being: pH 9, compound at 30 μM; BNPP 3 mM, pH 9.0, 37° C., 30 minutes; read-out: Inhibition.
On to `O=C1/C(=C/c2ccc(C(F)(F)F)cc2)Cc2ccc(OCc3ccc(F)c(F)c3)cc21` [Compound 6], for which the inhibition at 30 µM is less than 50%. As for `O=C(O)c1ccc(COc2ccc3c(c2)C/C(=C\c2ccc(OCc4cc(F)c(F)cc4F)c(F)c2)C3=O)cc1` [Compound 15], the inhibition at 30 µM lay within 50 to 80%. On to `O=C(OCc1cc(F)ccc1F)c1ccc(CC2CCc3cc(OCc4cc(F)ccc4F)ccc3C2=O)cc1` (stereo not drawn) [Compound 62], for which the inhibition at 30 µM was greater than 80%. Same read-out and setting: the value for `O=C(NCc1ccc(F)c(F)c1)c1ccc(CC2CCc3cc(O)ccc3C2=O)cc1` (stereo not drawn) [Compound 59] was 50 to 80%; that for `O=C(Nc1ccc2c(c1)C/C(=C\c1ccc(C(F)(F)F)cc1)C2=O)OCc1ccccc1` [Compound 27] was less than 50%; that for `O=C(Nc1ccc2c(c1)C(=O)N(Cc1ccc(C(F)(F)F)cc1)C2=O)OCc1ccccc1` [Compound 38] was less than 50%. Still for that read-out and setting: the value for `O=C(O)c1cc(CC2CCc3cc(OCCc4cc(F)ccc4F)ccc3C2=O)ccc1O` (stereo not drawn) [Compound 52] was 50 to 80%; that for `O=C1/C(=C/c2ccc(OCCc3ccc(F)cc3)cc2)CCc2cc(O)ccc21` [Compound 100] was less than 50%; that for `O=C(Nc1ccc(CC2CCc3cc(O)ccc3C2=O)cc1)OCc1ccc(Cl)c(Cl)c1` (stereo not drawn) [Compound 68] was greater than 80%. On the same count and under the same terms, as for `O=C(NCc1cc(F)ccc1F)c1ccc(CC2Cc3cc(O)ccc3C2=O)cc1` (stereo not drawn) [Compound 32], the figure is less than 50%. With `O=C1/C(=C/c2cccc(C(F)(F)F)c2)Cc2ccc(OCc3ccc(F)c(F)c3)cc21` [Compound 7], the inhibition at 30 µM was in the range of 50 to 80%. Same read-out and setting: the value for `O=C(O)c1ccc(COc2ccc3c(c2)C/C(=C\c2cc(Cl)cc(C(F)(F)F)c2)C3=O)cc1` [Compound 129] was 50 to 80%. With `O=C1c2cc(O)ccc2CC1CC1CCN(C(=O)OCc2cc(Cl)cc(Cl)c2)CC1` (stereo not drawn) [Compound 117], the inhibition at 30 µM is less than 50%. With `CS(=O)(=O)N1CCN(C(=O)c2ccc(COc3ccc4c(c3)C/C(=C\c3cc(Cl)cc(Cl)c3)C4=O)cc2)CC1` [Compound 121], the inhibition at 30 µM was less than 50%. Same read-out and setting: the value for `COC(=O)c1ccc(COc2ccc3c(c2)C/C(=C\c2cc(Cl)cc(Cl)c2)C3=O)cc1` [Compound 132] was less than 50%. On to `O=C(O)c1ccc(COc2ccc3c(c2)C/C(=C\c2ccc(OCCOc4ccc(F)cc4F)cc2)C3=O)cc1` [Compound 16], for which the inhibition at 30 µM lay within 50 to 80%. The same measure, in the same setting: as for `O=C(O)c1ccc(CN2CCc3cc(OCc4cc(F)c(F)cc4F)ccc3C2=O)cc1` [Compound 77], the figure is 50 to 80%; as for `O=C(O)c1ccc(CC2CCc3cc(OCc4cc(F)c(F)cc4F)ccc3C2=O)cc1` (stereo not drawn) [Compound 44], less than 50%. In the case of `O=C(O)c1ccc(CC2CCc3c(OCc4cc(F)c(F)cc4F)cccc3C2=O)cc1` (stereo not drawn) [Compound 47], the inhibition at 30 µM lay within 50 to 80%. `O=C1/C(=C/c2ccc(C(F)(F)F)cc2)CCc2cc(OCc3ccc(F)c(F)c3)ccc21` [Compound 92]: the inhibition at 30 µM is 50 to 80%. On the same count and under the same terms, the value for `O=C(Nc1ccc2c(c1)C/C(=C\c1cccc(C(F)(F)F)c1)C2=O)OCc1ccccc1` [Compound 26] was less than 50%; that for `O=C(O)COc1ccc(COc2ccc3c(c2)C/C(=C\c2cc(Cl)cc(Cl)c2)C3=O)cc1` [Compound 131] was greater than 80%; that for `O=C(OCc1cc(F)c(F)cc1F)c1ccc(CC2Cc3ccc(O)cc3C2=O)cc1` (stereo not drawn) [Compound 34] was 50 to 80%. On to `CN(Cc1cc(F)c(F)cc1F)C(=O)c1ccc(CC2CCc3cc(O)ccc3C2=O)cc1` (stereo not drawn) [Compound 61], for which the inhibition at 30 µM is 50 to 80%. Consider `O=C1/C(=C/c2ccc(OCCOc3ccc(F)cc3F)cc2)CCc2cc(O)ccc21` [Compound 101], for which the inhibition at 30 µM is less than 50%. The same measure, in the same setting: the value for `O=C(O)c1ccc(COc2ccc3c(c2)C/C(=C\c2cc(F)c(F)cc2F)C3=O)cc1` [Compound 21] was greater than 80%; that for `O=C1/C(=C/c2ccc(OCc3cc(F)c(F)cc3F)cc2)CCc2cc(O)ccc21` [Compound 99] was less than 50%. For the compound `O=C(Nc1ccc(CC2CCc3cc(O)ccc3C2=O)cc1)Nc1cc(Cl)cc(Cl)c1` (stereo not drawn) [Compound 118], the inhibition at 30 µM is less than 50%. Consider `O=C(Nc1ccc(F)c(F)c1)c1ccc2c(c1)C(=O)N(Cc1cccc(C(F)(F)F)c1)C2=O` [Compound 96], for which the inhibition at 30 µM is 50 to 80%.

Turning to `CONC(=O)c1ccc(COc2ccc3c(c2)C/C(=C\c2cc(Cl)cc(Cl)c2)C3=O)cc1` [Compound 127], the inhibition at 30 µM fell in the range of 50 to 80%.

As for `O=C(O)c1ccc(COc2ccc3c(c2)C/C(=C\c2ccc(-c4ccc(F)cc4)cc2)C3=O)cc1` [Compound 12], the inhibition at 30 µM was greater than 80%. For the compound `O=C1/C(=C/c2cccc(C(F)(F)F)c2)CCc2cc(OCc3ccc(F)c(F)c3)ccc21` [Compound 93], the inhibition at 30 µM is 50 to 80%. Still for that read-out and setting: as for `CNC(=O)c1ccc(COc2ccc3c(c2)C/C(=C\c2cc(Cl)cc(Cl)c2)C3=O)cc1` [Compound 120], the figure is greater than 80%; as for `CS(=O)(=O)Cc1ccc(COc2ccc3c(c2)C/C(=C\c2cc(Cl)cc(Cl)c2)C3=O)cc1` [Compound 124], less than 50%; as for `O=C(O)c1ccc(/C=C2\CCc3c(OCc4cc(F)c(F)cc4F)cccc3C2=O)cc1` [Compound 46], 50 to 80%. On the same count and under the same terms, the value for `O=C(O)c1ccc(COc2ccc3c(c2)C/C(=C\c2cc(F)c(F)c(F)c2)C3=O)cc1` [Compound 18] was 50 to 80%. As for `O=C(O)c1ccc(CC2CCc3cc(OCCc4ccc(F)cc4)ccc3C2=O)cc1` (stereo not drawn) [Compound 51], the inhibition at 30 µM was greater than 80%. Still for that read-out and setting: the value for `COC(=O)c1ccc(COc2ccc3c(c2)C/C(=C\c2ccc(Cl)c(F)c2)C3=O)cc1` [Compound 88] was greater than 80%. Turning to `O=C(O)c1ccc(/C=C2\Cc3cc(OCc4cc(F)c(F)cc4F)ccc3C2=O)cc1` [Compound 10], the inhibition at 30 µM was less than 50%. As to `O=C(CCc1ccc(CC2CCc3cc(O)ccc3C2=O)cc1)c1ccc(F)c(F)c1` (stereo not drawn) [Compound 81], the inhibition at 30 µM was in the range of 50 to 80%. In the case of `O=C1c2ccc(O)cc2CCC1CN1CCN(C(=O)OCc2cc(Cl)cc(Cl)c2)CC1` (stereo not drawn) [Compound 85], the inhibition at 30 µM was greater than 80%.

For `O=C1c2ccc(O)cc2CCC1Cc1ccc(OCCOc2ccc(F)cc2F)cc1` (stereo not drawn) [Compound 102], the inhibition at 30 µM is 50 to 80%. Still for that read-out and setting: as for `O=C(O)c1ccc(COc2ccc3c(c2)C/C(=C\c2cc(Cl)cc(Cl)c2)C3=O)cc1` [Compound 20, (E)-4-(((2-(3,5-dichlorobenzylidene)-1-oxo-2,3-dihydro-1H-inden-5-yl)oxy)methyl)benzoic acid], the figure is greater than 80%; as for `O=C1c2ccc(OCCc3cc(F)ccc3F)cc2CCC1Cc1ccc(O)c(O)c1` (stereo not drawn) [Compound 53], greater than 80%; as for `O=C(O)c1ccc(COc2ccc3c(c2)C/C(=C\c2ccc(Cl)cc2Cl)C3=O)cc1` [Compound 19], greater than 80%. In the case of `O=C(NCc1cc(F)ccc1F)c1ccc(/C=C2\Cc3cc(O)ccc3C2=O)cc1` [Compound 33], the inhibition at 30 µM was in the range of 50 to 80%.
